Legend:
[1] = molecular target: T1, HiBit-BRG1 fusion protein (Homo sapiens, UniProt P51532); assay: HiBiT-BRG1 cell-based degradation assay (Nano-Glo HiBiT Lytic Detection, 24 h); conditions: HeLa cell line expressing HiBit-BRG1 and LgBit; for Dmax: read-out: BRG1 HiBit Degradation Maximum (%); for DC50: read-out: BRMG1 HiBit Degradation IC50
T1 construct: expressed in transfected cells
Outline: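 Luminescence from reconstituted NanoBiT luciferase after lytic detection served as read-out of remaining HiBit-BRG1 in stable HeLa cells, which also express LgBit. Cells were seeded at 5000 per well and incubated with compound for 24 h. DMSO and a 2 μM known degrader defined the control range.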

[2] = molecular target: T2, HiBit-BRM fusion protein (Homo sapiens, UniProt P51531); assay: HiBiT-BRM cell-based degradation assay (Nano-Glo HiBiT Lytic Detection, 24 h); conditions: HeLa cell line expressing HiBiT-BRM; for DC50: read-out: BRM HiBit Degradation IC50
T2 construct: expressed in transfected cells
Outline: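 HeLa cells stably expressing HiBiT-BRM were dosed with compounds (10-point 3-fold dilutions, 30 μM final top dose, duplicate) for 24 h. HiBiT signal was read by lytic LgBiT complementation luminescence. Percent degradation was normalised to DMSO (high control) and 2 μM of a reference BRM/BRG1 degrader (low control).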

T2 sequence (P51531 whole entry, the tested form may be a part): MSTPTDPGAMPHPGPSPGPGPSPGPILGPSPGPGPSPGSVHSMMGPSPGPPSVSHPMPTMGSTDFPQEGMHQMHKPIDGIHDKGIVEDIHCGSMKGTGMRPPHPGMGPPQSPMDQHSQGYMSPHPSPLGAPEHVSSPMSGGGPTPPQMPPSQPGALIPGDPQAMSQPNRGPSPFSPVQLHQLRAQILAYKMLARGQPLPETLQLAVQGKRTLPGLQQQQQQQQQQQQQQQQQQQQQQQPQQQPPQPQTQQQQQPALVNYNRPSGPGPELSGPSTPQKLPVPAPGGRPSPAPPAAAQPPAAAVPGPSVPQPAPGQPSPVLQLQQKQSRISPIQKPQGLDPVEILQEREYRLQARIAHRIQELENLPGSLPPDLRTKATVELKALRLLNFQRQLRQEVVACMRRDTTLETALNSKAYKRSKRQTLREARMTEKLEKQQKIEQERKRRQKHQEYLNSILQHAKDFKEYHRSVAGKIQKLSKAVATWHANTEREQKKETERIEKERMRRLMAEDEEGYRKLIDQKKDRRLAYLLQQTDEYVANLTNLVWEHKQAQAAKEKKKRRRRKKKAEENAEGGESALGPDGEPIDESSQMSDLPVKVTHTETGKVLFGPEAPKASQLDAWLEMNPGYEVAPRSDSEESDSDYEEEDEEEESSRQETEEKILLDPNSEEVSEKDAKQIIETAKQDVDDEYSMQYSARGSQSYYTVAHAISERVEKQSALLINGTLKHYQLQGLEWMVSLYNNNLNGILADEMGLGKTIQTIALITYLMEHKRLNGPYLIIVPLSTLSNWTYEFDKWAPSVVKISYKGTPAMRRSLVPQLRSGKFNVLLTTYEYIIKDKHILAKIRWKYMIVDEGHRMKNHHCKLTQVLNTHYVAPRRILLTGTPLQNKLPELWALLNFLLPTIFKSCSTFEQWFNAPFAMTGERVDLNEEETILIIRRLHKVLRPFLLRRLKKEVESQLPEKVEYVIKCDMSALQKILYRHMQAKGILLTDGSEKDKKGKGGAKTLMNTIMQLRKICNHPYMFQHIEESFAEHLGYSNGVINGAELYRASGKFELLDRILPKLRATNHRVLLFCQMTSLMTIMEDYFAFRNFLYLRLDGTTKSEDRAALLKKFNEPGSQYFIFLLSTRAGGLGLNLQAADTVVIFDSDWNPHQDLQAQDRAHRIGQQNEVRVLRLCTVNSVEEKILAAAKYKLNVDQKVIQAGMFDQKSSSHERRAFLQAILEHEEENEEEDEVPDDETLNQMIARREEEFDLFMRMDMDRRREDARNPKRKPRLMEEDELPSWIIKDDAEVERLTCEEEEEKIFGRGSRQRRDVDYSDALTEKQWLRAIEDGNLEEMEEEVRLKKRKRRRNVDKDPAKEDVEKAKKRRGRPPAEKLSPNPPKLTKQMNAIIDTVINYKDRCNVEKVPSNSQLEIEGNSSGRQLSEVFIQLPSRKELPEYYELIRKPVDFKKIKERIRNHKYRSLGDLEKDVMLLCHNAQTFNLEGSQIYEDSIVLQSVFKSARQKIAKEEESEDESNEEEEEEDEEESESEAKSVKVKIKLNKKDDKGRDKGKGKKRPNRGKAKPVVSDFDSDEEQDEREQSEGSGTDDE
T1 sequence (P51532 whole entry, the tested form may be a part): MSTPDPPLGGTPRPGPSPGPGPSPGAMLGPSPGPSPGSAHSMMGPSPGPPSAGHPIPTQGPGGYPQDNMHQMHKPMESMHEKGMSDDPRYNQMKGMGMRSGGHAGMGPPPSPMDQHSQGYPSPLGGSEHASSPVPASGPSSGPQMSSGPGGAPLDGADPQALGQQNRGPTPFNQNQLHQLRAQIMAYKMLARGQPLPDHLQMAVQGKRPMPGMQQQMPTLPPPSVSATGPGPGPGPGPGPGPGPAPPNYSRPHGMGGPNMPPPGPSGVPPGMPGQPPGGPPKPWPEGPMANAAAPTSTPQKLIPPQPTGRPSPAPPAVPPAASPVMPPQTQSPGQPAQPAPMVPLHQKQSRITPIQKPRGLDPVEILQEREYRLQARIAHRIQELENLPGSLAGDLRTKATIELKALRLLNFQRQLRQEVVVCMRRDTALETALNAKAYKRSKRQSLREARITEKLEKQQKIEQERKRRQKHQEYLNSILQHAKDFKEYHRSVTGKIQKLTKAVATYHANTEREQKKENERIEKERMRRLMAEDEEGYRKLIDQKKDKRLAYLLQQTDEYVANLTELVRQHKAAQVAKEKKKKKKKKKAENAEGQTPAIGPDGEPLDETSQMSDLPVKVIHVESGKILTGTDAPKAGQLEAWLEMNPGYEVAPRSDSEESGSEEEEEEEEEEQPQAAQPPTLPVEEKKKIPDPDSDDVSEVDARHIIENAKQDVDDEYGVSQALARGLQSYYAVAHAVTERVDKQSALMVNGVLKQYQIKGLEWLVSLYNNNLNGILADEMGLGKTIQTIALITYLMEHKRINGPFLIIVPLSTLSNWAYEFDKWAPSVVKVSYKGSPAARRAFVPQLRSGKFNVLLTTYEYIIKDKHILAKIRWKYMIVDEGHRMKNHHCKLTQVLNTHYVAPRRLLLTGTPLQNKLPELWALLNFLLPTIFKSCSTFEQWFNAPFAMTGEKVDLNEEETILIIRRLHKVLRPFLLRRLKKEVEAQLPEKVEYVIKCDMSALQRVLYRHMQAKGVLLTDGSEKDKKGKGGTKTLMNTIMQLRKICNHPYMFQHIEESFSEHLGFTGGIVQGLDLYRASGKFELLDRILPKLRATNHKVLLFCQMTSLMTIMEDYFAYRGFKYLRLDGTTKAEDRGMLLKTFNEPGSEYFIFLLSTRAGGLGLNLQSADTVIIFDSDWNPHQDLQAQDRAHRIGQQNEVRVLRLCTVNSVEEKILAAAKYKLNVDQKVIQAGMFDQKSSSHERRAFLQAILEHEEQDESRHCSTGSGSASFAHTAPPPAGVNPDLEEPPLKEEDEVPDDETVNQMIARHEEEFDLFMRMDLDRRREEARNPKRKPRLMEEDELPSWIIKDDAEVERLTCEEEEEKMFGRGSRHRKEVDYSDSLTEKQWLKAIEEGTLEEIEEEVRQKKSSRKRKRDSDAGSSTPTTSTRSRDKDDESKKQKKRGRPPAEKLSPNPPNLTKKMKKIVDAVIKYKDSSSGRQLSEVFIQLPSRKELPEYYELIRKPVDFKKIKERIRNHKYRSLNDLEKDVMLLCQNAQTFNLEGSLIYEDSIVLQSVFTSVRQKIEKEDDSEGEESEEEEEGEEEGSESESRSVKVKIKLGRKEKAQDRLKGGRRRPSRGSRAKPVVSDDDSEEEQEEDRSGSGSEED

Dmax [1] [%] | DC50 [2] [nM] | DC50 [1] [nM] | SMILES | BRM HiBit Degradation Maximum (%) [2]
< 50 | > 100 | – | Cc1ncsc1-c1ccc([C@H](C)NC(=O)[C@@H]2C[C@@H](O)CN2C(=O)[C@@H](c2cc(OCCN3Cc4[nH]c5nnc(-c6ccccc6O)cc5c4C3)no2)C(C)C)cc1 [Compound 123, (2S,4R)-4-hydroxy-1-[(2R)-2-(3-{2-[11-(2-hydroxyphenyl)-4,7,9,10-tetraazatricyclo[6.4.0.0^{2,6}]dodeca-1(12),2(6),8,10-tetraen-4-yl]ethoxy}-1,2-oxazol-5-yl)-3-methylbutanoyl]-N-[(1S)-1-[4-(4-methyl-1,3-thiazol-5-yl)phenyl]ethyl]pyrrolidine-2-carboxamide] | A (“A” indicates maximum degradation ≥ 75%)
< 50 | > 10 | – | Cc1ncsc1-c1ccc(C(C)NC(=O)C2CC(O)CN2C(=O)C(c2cc(OCCN3CC4C(C3)C4c3cc4cc(-c5cc(F)cc(F)c5O)nnc4[nH]3)no2)C(C)C)cc1 [Compound 141, (2S,4R)-1-((R)-2-(3-(2-((1R,5S,6R)-6-(3-(3,5-difluoro-2-hydroxyphenyl)-7H-pyrrolo[2,3-c]pyridazin-6-yl)-3-azabicyclo[3.1.0]hexan-3-yl)ethoxy)isoxazol-5-yl)-3-methylbutanoyl)-4-hydroxy-N-((S)-1-(4-(4-methylthiazol-5-yl)phenyl)ethyl)pyrrolidine-2-carboxamide] | A (“A” indicates maximum degradation ≥ 75%)
< 50 | > 100 | – | Cc1ncsc1-c1ccc([C@H](C)NC(=O)[C@@H]2C[C@@H](O)CN2C(=O)[C@@H](c2cc(OCCCN[C@H]3CCc4[nH]c5nnc(-c6ccccc6O)cc5c4C3)no2)C(C)C)cc1 [Compound 143, (2S,4R)-4-hydroxy-1-((R)-2-(3-(3-(((S)-3-(2-hydroxyphenyl)-6,7,8,9-tetrahydro-5H-pyridazino[3,4-b]indol-6-yl)amino)propoxy)isoxazol-5-yl)-3-methylbutanoyl)-N-((S)-1-(4-(4-methylthiazol-5-yl)phenyl)ethyl)pyrrolidine-2-carboxamide] | A (“A” indicates maximum degradation ≥ 75%)
> 50 | > 10 | > 100 | Cc1ncsc1-c1ccc([C@H](C)NC(=O)[C@@H]2C[C@@H](O)CN2C(=O)[C@@H](c2cc(N3CCC(C(=O)N[C@H]4CCc5[nH]c6nnc(-c7ccccc7O)cc6c5C4)CC3)no2)C(C)C)cc1 [Compound 144, 1-(5-((R)-1-((2S,4R)-4-hydroxy-2-(((S)-1-(4-(4-methylthiazol-5-yl)phenyl)ethyl)carbamoyl)pyrrolidin-1-yl)-3-methyl-1-oxobutan-2-yl)isoxazol-3-yl)-N-((S)-3-(2-hydroxyphenyl)-6,7,8,9-tetrahydro-5H-pyridazino[3,4-b]indol-6-yl)piperidine-4-carboxamide] | A (“A” indicates maximum degradation ≥ 75%)
> 50 | > 10 | > 100 | Cc1ncsc1-c1ccc([C@H](C)NC(=O)[C@@H]2C[C@@H](O)CN2C(=O)[C@@H](c2cc(OCC(=O)N[C@@H]3CCc4[nH]c5nnc(-c6ccccc6O)cc5c4C3)no2)C(C)C)cc1 [Compound 150, (2S,4R)-4-hydroxy-1-((R)-2-(3-(2-(((R)-3-(2-hydroxyphenyl)-6,7,8,9-tetrahydro-5H-pyridazino[3,4-b]indol-6-yl)amino)-2-oxoethoxy)isoxazol-5-yl)-3-methylbutanoyl)-N-((S)-1-(4-(4-methylthiazol-5-yl)phenyl)ethyl)pyrrolidine-2-carboxamide] | A (“A” indicates maximum degradation ≥ 75%)
< 50 | > 10 | – | Cc1ncsc1-c1ccc([C@H](C)NC(=O)[C@@H]2C[C@@H](O)CN2C(=O)[C@@H](c2cc(OCCN(C)[C@@H]3CCc4[nH]c5nnc(-c6ccccc6O)cc5c4C3)no2)C(C)C)cc1 [Compound 156, (2S,4R)-4-hydroxy-1-((R)-2-(3-(2-(((R)-3-(2-hydroxyphenyl)-6,7,8,9-tetrahydro-5H-pyridazino[3,4-b]indol-6-yl)(methyl)amino)ethoxy)isoxazol-5-yl)-3-methylbutanoyl)-N-((S)-1-(4-(4-methylthiazol-5-yl)phenyl)ethyl)pyrrolidine-2-carboxamide] | A (“A” indicates maximum degradation ≥ 75%)
> 75 | > 10 | > 100 | Cc1ncsc1-c1ccc([C@H](C)NC(=O)[C@@H]2C[C@@H](O)CN2C(=O)[C@@H](c2cc(N3CCC(CN[C@H]4CCc5[nH]c6nnc(-c7ccccc7O)cc6c5C4)CC3)no2)C(C)C)cc1 [Compound 159, (2S,4R)-4-hydroxy-1-((R)-2-(3-(4-((((S)-3-(2-hydroxyphenyl)-6,7,8,9-tetrahydro-5H-pyridazino[3,4-b]indol-6-yl)amino)methyl)piperidin-1-yl)isoxazol-5-yl)-3-methylbutanoyl)-N-((S)-1-(4-(4-methylthiazol-5-yl)phenyl)ethyl)pyrrolidine-2-carboxamide] | A (“A” indicates maximum degradation ≥ 75%)
< 50 | – | – | Cc1ncsc1-c1ccc(CNC(=O)[C@@H]2C[C@@H](O)CN2C(=O)[C@@H](NC(=O)CCCCC(=O)N[C@@H]2CCc3[nH]c4nnc(-c5ccccc5O)cc4c3C2)C(C)(C)C)cc1 [Compound 170, N1-((S)-1-((2S,4R)-4-hydroxy-2-((4-(4-methylthiazol-5-yl)benzyl)carbamoyl)pyrrolidin-1-yl)-3,3-dimethyl-1-oxobutan-2-yl)-N6-((R)-3-(2-hydroxyphenyl)-6,7,8,9-tetrahydro-5H-pyridazino[3,4-b]indol-6-yl)adipamide] | C (“C” indicates maximum degradation < 50%)
< 50 | – | – | Cc1ncsc1-c1ccc(CNC(=O)[C@@H]2C[C@@H](O)CN2C(=O)[C@@H](NC(=O)CCC(=O)N[C@@H]2CCc3[nH]c4nnc(-c5ccccc5O)cc4c3C2)C(C)(C)C)cc1 [Compound 171, N1-((S)-1-((2S,4R)-4-hydroxy-2-((4-(4-methylthiazol-5-yl)benzyl)carbamoyl)pyrrolidin-1-yl)-3,3-dimethyl-1-oxobutan-2-yl)-N4-((R)-3-(2-hydroxyphenyl)-6,7,8,9-tetrahydro-5H-pyridazino[3,4-b]indol-6-yl)succinamide] | C (“C” indicates maximum degradation < 50%)
< 50 | – | – | Cc1ncsc1-c1ccc(CNC(=O)[C@@H]2C[C@@H](O)CN2C(=O)[C@@H](NC(=O)CCCC(=O)N[C@@H]2CCc3[nH]c4nnc(-c5ccccc5O)cc4c3C2)C(C)(C)C)cc1 [Compound 180, N1-((S)-1-((2S,4R)-4-hydroxy-2-((4-(4-methylthiazol-5-yl)benzyl)carbamoyl)pyrrolidin-1-yl)-3,3-dimethyl-1-oxobutan-2-yl)-N5-((R)-3-(2-hydroxyphenyl)-6,7,8,9-tetrahydro-5H-pyridazino[3,4-b]indol-6-yl)glutaramide] | C (“C” indicates maximum degradation < 50%)
< 50 | > 100 | – | Cc1ncsc1-c1ccc([C@H](C)NC(=O)[C@@H]2C[C@@H](O)CN2C(=O)[C@@H](c2cc(OCCN[C@@H]3CCc4[nH]c5nnc(-c6ccccc6O)cc5c4C3)no2)C(C)C)cc1 [Compound 181, (2S,4R)-4-hydroxy-1-((R)-2-(3-(2-(((R)-3-(2-hydroxyphenyl)-6,7,8,9-tetrahydro-5H-pyridazino[3,4-b]indol-6-yl)amino)ethoxy)isoxazol-5-yl)-3-methylbutanoyl)-N-((S)-1-(4-(4-methylthiazol-5-yl)phenyl)ethyl)pyrrolidine-2-carboxamide] | A (“A” indicates maximum degradation ≥ 75%)
< 50 | > 10 | > 1000 | Cc1ncsc1-c1ccc(C(C)NC(=O)C2CC(O)CN2C(=O)C(c2cc(OCCN3CC4C(C3)C4c3c(C)[nH]c4nnc(-c5ccccc5O)cc34)no2)C(C)C)cc1 [Compound 255, (2S,4R)-4-hydroxy-1-((R)-2-(3-(2-((1R,5S,6S)-6-(3-(2-hydroxyphenyl)-6-methyl-7H-pyrrolo[2,3-c]pyridazin-5-yl)-3-azabicyclo[3.1.0]hexan-3-yl)ethoxy)isoxazol-5-yl)-3-methylbutanoyl)-N-((S)-1-(4-(4-methylthiazol-5-yl)phenyl)ethyl)pyrrolidine-2-carboxamide] | A (“A” indicates maximum degradation ≥ 75%)
> 75 | < 10 | > 10 | Cc1ncsc1-c1ccc([C@H](C)NC(=O)[C@@H]2C[C@@H](O)CN2C(=O)[C@@H](c2cc(OCCN3C[C@@H]4[C@H](C3)[C@H]4c3[nH]c4nnc(-c5ccccc5O)cc4c3C)no2)C(C)C)cc1 [Compound 272, (2S,4R)-4-hydroxy-1-((R)-2-(3-(2-((1R,5S,6R)-6-(3-(2-hydroxyphenyl)-5-methyl-7H-pyrrolo[2,3-c]pyridazin-6-yl)-3-azabicyclo[3.1.0]hexan-3-yl)ethoxy)isoxazol-5-yl)-3-methylbutanoyl)-N-((S)-1-(4-(4-methylthiazol-5-yl)phenyl)ethyl)pyrrolidine-2-carboxamide] | A (“A” indicates maximum degradation ≥ 75%)
